Blank lines part the entries; values can stand above or below the compound they belong to.
Columns and labels:
HepG2 [1] = test: Cytotoxicity against human HepG2 cells incubated for 48 hrs by MTT assay; format: functional, cell-based; conditions: HepG2, 48 h
HeLa [2] = test: Cytotoxicity against human HeLa cells incubated for 48 hrs by MTT assay; format: functional, cell-based
U-87 MG = test: Cytotoxicity against human U87 cells assessed as inhibition of cell growth incubated for 72 hrs by resazurin assay; format: functional, cell-based, U-87MG ATCC
MDA-MB-231 [3] = test: Cytotoxicity against human MDA-MB-231 cells assessed as inhibition of cell growth incubated for 72 hrs by resazurin assay; format: functional, cell-based; conditions: MDA-MB-231, 72 h
MCF7 [4] = test: Cytotoxicity against human MCF7 cells assessed as inhibition of cell growth incubated for 72 hrs by resazurin assay; format: functional, cell-based; conditions: MCF7, 72 h
HCT-116 [5] = test: Cytotoxicity against human HCT-116 cells assessed as inhibition of cell growth incubated for 72 hrs by resazurin assay; format: functional, cell-based; conditions: HCT-116, 72 h
Huh-7 = test: Cytotoxicity against human Huh-7 cells assessed as inhibition of cell growth incubated for 72 hrs by resazurin assay; format: functional, cell-based; conditions: Huh-7, 72 h
HeLa [6] = test: Cytotoxicity against human HeLa cells incubated for 48 hrs by MTT microplate reader assay; format: functional, cell-based
MDA-MB-231 [7] = test: Antiproliferative activity against human MDA-MB-231 cells assessed as inhibition of cell growth incubated for 72 hrs by Sulforhodamine B assay; format: functional, cell-based; conditions: MDA-MB-231, 72 h
MCF7 [8] = test: Antiproliferative activity against human MCF7 cells assessed as inhibition of cell growth incubated for 72 hrs by Sulforhodamine B assay; format: functional, cell-based; conditions: MCF7, 72 h
[9] = Antiproliferative activity against human HGF cells assessed as inhibition of cell growth incubated for 72 hrs by Sulforhodamine B assay; format: toxicity, cell-based
A549 [10] = test: Antiproliferative activity against human A549 cells assessed as inhibition of cell growth incubated for 72 hrs by Sulforhodamine B assay; format: functional, cell-based; conditions: A549, 72 h
SK-BR-3 = test: Antiproliferative activity against human SK-BR-3 cells assessed as inhibition of cell growth incubated for 72 hrs by Sulforhodamine B assay; format: functional, cell-based; conditions: SK-BR-3, 72 h
C6 = test: Antiproliferative activity against rat C6 cells assessed as inhibition of cell growth incubated for 72 hrs by Sulforhodamine B assay; format: functional, cell-based; conditions: C6, 72 h
B16-F10 = test: Antiproliferative activity against mouse B16-F10 cells assessed as inhibition of cell growth incubated for 72 hrs by Sulforhodamine B assay; format: functional, cell-based; conditions: B16-F10, 72 h
MCF7 [11] = test: Growth inhibition of human MCF7 cells incubated for 48 hrs by Sulforhodamine B reagent based spectrophotometric assay; format: functional
MDA-MB-231 [12] = test: Growth inhibition of human MDA-MB-231 cells incubated for 48 hrs by Sulforhodamine B reagent based spectrophotometric assay; format: functional
MCF7 [13] = test: Antiproliferative activity against human MCF7 cells assessed as inhibition of cell growth incubated for 48 hrs by MTT reagent based spectrophotometric analysis; format: functional; conditions: MCF7, 48 h
HepG2 [14] = test: Antiproliferative activity against human HepG2 cells assessed as inhibition of cell growth incubated for 48 hrs by MTT reagent based spectrophotometric analysis; format: functional; conditions: HepG2, 48 h
MDA-MB-231 [15] = test: Antiproliferative activity against human MDA-MB-231 cells assessed as inhibition of cell growth incubated for 72 hrs by WST-1 assay; format: functional, cell-based; conditions: MDA-MB-231, 72 h
MCF7 [16] = test: Antiproliferative activity against human MCF7 cells assessed as inhibition of cell growth incubated for 72 hrs by WST-1 assay; format: functional, cell-based; conditions: MCF7, 72 h
COLO-829 = test: Antiproliferative activity against human COLO-829 cells assessed as inhibition of cell growth incubated for 72 hrs by WST-1 assay; format: functional, cell-based; conditions: COLO-829, 72 h
Caco-2 = test: Antiproliferative activity against human Caco-2 cells assessed as inhibition of cell growth incubated for 72 hrs by WST-1 assay; format: functional, cell-based; conditions: Caco-2, 72 h
A549 [17] = test: Antiproliferative activity against human A549 cells assessed as inhibition of cell growth incubated for 72 hrs by WST-1 assay; format: functional, cell-based; conditions: A549, 72 h
T47D = test: Antiproliferative activity against human T47D cells assessed as inhibition of cell growth incubated for 72 hrs by WST-1 assay; format: functional, cell-based
MCF7 [18] = test: Antiproliferative activity against human MCF7 cells assessed as inhibition of cell growth incubated for 48 hrs by MTS assay; format: functional, cell-based; conditions: MCF7, 48 h
NCI-H1299 = test: Antiproliferative activity against human NCI-H1299 cells assessed as inhibition of cell growth incubated for 48 hrs by MTS assay; format: functional, cell-based; conditions: NCI-H1299, 48 h
HCT-116 [19] = test: Antiproliferative activity against human HCT-116 cells assessed as inhibition of cell growth incubated for 48 hrs by MTS assay; format: functional, cell-based; conditions: HCT-116, 48 h
HeLa [20] = test: Antiproliferative activity against human HeLa cells assessed as inhibition of cell growth incubated for 48 hrs by MTS assay; format: functional, cell-based
B16 = test: Antiproliferative activity against mouse B16 cells assessed as inhibition of cell growth incubated for 48 hrs by MTS assay; format: functional, cell-based; conditions: B16, 48 h
HCT-116 [21] = test: Antiproliferative activity against human HCT-116 cells assessed as inhibition of cell growth incubated for 24 hrs by BrdU incorporation assay; format: functional, cell-based; conditions: HCT-116, 24 h
HT-29 = test: Antiproliferative activity against human HT-29 cells assessed as inhibition of cell growth incubated for 24 hrs by BrdU incorporation assay; format: functional, cell-based; conditions: HT-29, 24 h
SH-SY5Y = test: Antiproliferative activity against human SH-SY5Y cells assessed as inhibition of cell growth incubated for 48 hrs by MTT assay; format: functional, cell-based
SAOS-2 = test: Antiproliferative activity against human SAOS-2 cells assessed as inhibition of cell growth incubated for 48 hrs by MTT assay; format: functional, cell-based; conditions: SAOS-2, 48 h
U2OS = test: Antiproliferative activity against human U2OS cells assessed as inhibition of cell growth incubated for 48 hrs by MTT assay; format: functional, cell-based
HeLa [22] = test: Antiproliferative activity against human HeLa cells assessed as inhibition of cell growth incubated for 48 hrs by MTT assay; format: functional, cell-based
HCT-116 [23] = test: Antiproliferative activity against human HCT-116 cells assessed as inhibition of cell growth by MTT assay; format: functional, cell-based
SK-OV-3 = test: Antiproliferative activity against human SK-OV-3 cells assessed as inhibition of cell growth incubated for 48 hrs by MTT reagent based spectrophotometric analysis; format: functional; conditions: SK-OV-3, 48 h
A2780 = test: Antiproliferative activity against human A2780 cells assessed as inhibition of cell growth incubated for 48 hrs by MTT reagent based spectrophotometric analysis; format: functional; conditions: A2780, 48 h
OVCAR-3 = test: Antiproliferative activity against human OVCAR-3 cells assessed as inhibition of cell growth incubated for 48 hrs by MTT reagent based spectrophotometric analysis; format: functional; conditions: OVCAR-3, 48 h
K562 = test: Antiproliferative activity against human K562 cells assessed as inhibition of cell growth incubated for 72 hrs by MTT assay; format: functional, cell-based; conditions: K562, 72 h

GI50 (MCF7 [11]): 5.8 µM
GI50 (MDA-MB-231 [12]): 5 µM
Compound: O=C1C(Cl)=C(N2CCN(Cc3ccc4c(c3)OCO4)CC2)C(=O)c2ccccc21

IC50 (MCF7 [18]): 0.069 µM
IC50 (NCI-H1299): 0.109 µM
IC50 (HCT-116 [19]): 0.088 µM
IC50 (HeLa [20]): 0.122 µM
IC50 (B16): 0.104 µM
Compound: CN(C)C(=S)SCC1=C(CSC(=S)N(C)C)C(=O)c2ccccc2C1=O

IC50 (SH-SY5Y): 0.87 µM
IC50 (U2OS): 1.81 µM
IC50 (HeLa [22]): 0.54 µM
Compound: CC(=O)N[C@@H](CSC1=CC(=O)c2ccccc2C1=O)C(=O)O
IC50 (SAOS-2): 1.67 µM

IC50 (HCT-116 [23]): 5.32 µM
Compound: O=C1C=C(Sc2ccc([N+](=O)[O-])cc2)C(=O)c2ccccc21

IC50 (SK-OV-3): 2.8 µM
IC50 (A2780): 5.6 µM
IC50 (OVCAR-3): 6.8 µM
Compound: O=C1C=C(N(Cc2ccccn2)Cc2ccccn2)C(=O)c2ccccc21

Continued, compound first:

Compound: C[C@@H](CC[C@H]1O[C@H]2C[C@H]3[C@@H]4CC=C5C[C@@H](O)CC[C@]5(C)[C@H]4CC[C@]3(C)[C@H]2[C@@H]1C)COC1=C(Cl)C(=O)c2ccccc2C1=O
IC50 (HepG2 [1]): 1.24 µM
IC50 (HeLa [2]): 14.1 µM

Compound: CCOC(=O)C(NC1=C(Cl)C(=O)c2ccccc2C1=O)C(C)=O (stereo unspecified)
IC50 (U-87 MG): 18.9 µM
IC50 (MDA-MB-231 [3]): 15.9 µM
IC50 (MCF7 [4]): 24.5 µM
IC50 (HCT-116 [5]): 13.9 µM
IC50 (Huh-7): 18.3 µM

Compound: COc1ccc(C(C2=C(O)C(=O)c3ccccc3C2=O)c2c(C)[nH]n(-c3ccccc3)c2=O)c(O)c1 (stereo unspecified)
IC50 (HeLa [6]): 2.9 µM

Compound: CC(=O)OC[C@H]1O[C@H](n2cc(COC3=CC(=O)c4ccccc4C3=O)nn2)[C@H](OC(C)=O)[C@H](OC(C)=O)[C@H]1OC(C)=O
IC50 (MDA-MB-231 [7]): 14 µM
IC50 (MCF7 [8]): 3.33 µM
IC50 at 72 h [9]: 17.7 µM
IC50 (A549 [10]): 8.5 µM
IC50 (SK-BR-3): 0.78 µM
IC50 (C6): 14.7 µM
IC50 (B16-F10): 5.3 µM

Compound: O=C1C(Cl)=C(NNc2nnc3n2N=C(c2ccc(Cl)cc2)CS3)C(=O)c2ccccc21
IC50 (MCF7 [13]): 8.49 µM
IC50 (HepG2 [14]): 0.07 µM

Compound: C=C(C)[C@@H]1CC[C@]2(COC(=O)c3cn(CCCOC4=C(Cl)C(=O)c5ccccc5C4=O)nn3)CC[C@]3(C)[C@H](CC[C@@H]4[C@@]5(C)CC[C@H](O)C(C)(C)[C@@H]5CC[C@]43C)[C@@H]12
IC50 (MDA-MB-231 [15]): 10 µM
IC50 (MCF7 [16]): 11.7 µM
IC50 (COLO-829): 12.5 µM
IC50 (Caco-2): 12.2 µM
IC50 (A549 [17]): 1.86 µM
IC50 (T47D): 2.41 µM

Compound: O=C1C(Cl)=C(Oc2ccc(-c3oc4cc(O)cc(O)c4c(=O)c3O)cc2O)C(=O)c2ccccc21
IC50 (HCT-116 [21]): 10.3 µM
IC50 (HT-29): 23.2 µM

Compound: O=C1C=C(Nc2ccc(S(=O)(=O)c3ccc(NC(=S)N4CCCCC4)cc3)cc2)C(=O)c2ccccc21
IC50 (K562): 5.8 µM

— ChEMBL document CHEMBL5512632, “Unlocking the potential of 1,4-naphthoquinones: A comprehensive review of their anticancer properties” (Eur J Med Chem, 2024)
